Results on 3 compounds are retold here after patent US20090029954A1, “PROGESTERONE-RECEPTOR ANTAGONIST FOR USE IN BRCA ALONE OR AS COMBINATION WITH ANTIESTROGEN” (priority 2007, published 2009).

Data set [1] concerns BRCA1-, respectively BRCA2-mediated mammary carcinogenesis. The data set can be described thus: Mammary tumor formation in transgenic mice with breast-specific inactivation of p53 and BRCA1/BRCA2 (Example 2). Conditions: mice monitored weekly for tumor formation; placebo group median tumor latency 6.6 months. The class given is in vivo. The source says:
To address the specific roles of progesterone receptors in BRCA1- and BRCA2-mediated tumorigenesis, transgenic mice with an organ specific inactivation of p53 and BRCA1, respectively BRCA2 in the breast tissue have been studied. Inactivation of both BRCA1, respectively BRCA2 and p53 or c-myc genes in the mouse mammary gland mimics the majority of human BRCA1-associated tumors, which also harbor p53 mutations.
Because progesterone is a potent mitogen for BRCA1, respectively BRCA2 p53 or c-myc Crec mammary epithelial cells, it was tested whether blockade of the progesterone receptor activity by the progesterone receptor antagonist 11β-(4-acetylphenyl)-17β-hydroxy-17α-(1,1,2,2,2-pentafluoroethyl)-estra-4,9-dien-3-one could prevent or delay mammary carcinogenesis. Mice were treated with a placebo or with 11β-(4-acetylphenyl)-17β-hydroxy-17α-(1,1,2,2,2-pentafluoroethyl)-estra-4,9-dien-3-one. The mice were monitored weekly for tumor formation. The median tumor latency of was 6.6 months for the placebo control group with all mice developing palpable tumors.

In data set [2] the target is T1, progesterone receptor (Homo sapiens, UniProt P06401).
T1 sequence (P06401 1-933): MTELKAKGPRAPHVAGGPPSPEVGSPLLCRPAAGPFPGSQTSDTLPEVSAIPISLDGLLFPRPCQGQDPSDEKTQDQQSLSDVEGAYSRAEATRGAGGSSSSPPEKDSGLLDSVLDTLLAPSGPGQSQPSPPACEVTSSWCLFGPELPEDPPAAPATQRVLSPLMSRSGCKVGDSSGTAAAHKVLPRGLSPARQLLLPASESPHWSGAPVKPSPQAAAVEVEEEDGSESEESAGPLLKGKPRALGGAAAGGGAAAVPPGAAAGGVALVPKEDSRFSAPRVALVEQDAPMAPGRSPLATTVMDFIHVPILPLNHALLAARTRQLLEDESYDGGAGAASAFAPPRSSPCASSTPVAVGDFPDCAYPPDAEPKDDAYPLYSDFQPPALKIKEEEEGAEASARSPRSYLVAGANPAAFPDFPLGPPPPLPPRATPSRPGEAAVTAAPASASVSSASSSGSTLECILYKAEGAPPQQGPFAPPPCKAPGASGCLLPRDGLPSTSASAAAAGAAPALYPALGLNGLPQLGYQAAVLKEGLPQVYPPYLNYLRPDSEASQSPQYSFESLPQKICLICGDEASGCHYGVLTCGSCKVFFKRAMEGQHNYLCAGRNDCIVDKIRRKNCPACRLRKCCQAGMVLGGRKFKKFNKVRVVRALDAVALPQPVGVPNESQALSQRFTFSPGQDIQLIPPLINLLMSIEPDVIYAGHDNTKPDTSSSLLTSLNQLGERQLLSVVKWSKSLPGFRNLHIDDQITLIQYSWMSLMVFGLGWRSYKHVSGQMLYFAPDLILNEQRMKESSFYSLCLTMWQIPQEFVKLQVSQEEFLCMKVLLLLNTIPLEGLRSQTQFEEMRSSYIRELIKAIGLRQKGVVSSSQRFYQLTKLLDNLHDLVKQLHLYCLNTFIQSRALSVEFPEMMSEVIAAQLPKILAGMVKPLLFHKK
Kind of data set: Progesterone receptor protein expression/stability after siRNA BRCA1 knock down (Example 3). In kind it is cell-based. Here is the method: (§1) MCF-10 mammary cells obtained from ATCC were treated with siRNA knocking down the BRCA1 and BRCA2 gene.
(§2) Cell growth in comparison to untransfected and mock transfected cells was compared. In a second step cells were stimulated either with progesterone and/or with estrogens. […] The effects on progesteron receptor protein expression were further investigated.

For data set [3], the system named is MCF-10 mammary cells and T47D breast cancer cells with BRCA1 and BRCA2 knock down. The data set can be described thus: Growth of breast cells with siRNA BRCA1/BRCA2 knock down (Example 1). In kind it is cell-based. On the procedure:
(§3) MCF-10 mammary cells and T47D breast cancer cells obtained from ATCC were treated with siRNA knocking down the BRCA1 and BRCA2 gene.
as §2

Data set [4] addresses T1, progesterone receptor. Kind of data set: Progesterone receptor protein expression/stability after siRNA BRCA1 knock down (Example 1). The class given is cell-based. On the procedure: as §3, §2
In data set [5] the target is T1, progesterone receptor. The following applies: Fuhrmann et al., J. Med. Chem. 2000; cited from earlier work.
The subject of data set [6] is MCF-10 mammary cells with BRCA1 and BRCA2 knock down. Kind of data set: Growth of MCF-10 cells with siRNA BRCA1/BRCA2 knock down (Example 3). In kind it is cell-based. Conditions: co-treatment; MCF-10 siRNA knock down cells stimulated with progesterone and/or estrogens. On the procedure:
as §1, §2

A further data set deals with tumor cells. Kind of data set: Apoptosis of tumor cells.
In data set [7] the target is T1, progesterone receptor. Kind of data set: Endocrine profile of the progesterone-receptor antagonist.
A short description of the next data set: Bioavailability. The following applies: compared to ICI 182,780. In kind it is in vivo.
In data set [8] the test system is mammary tumors in Brca1/p53-deficient model. The following applies: mice with BRCA1- or BRCA2 inactivated in mammary glands; Poole et al., Science 2006; cited from earlier work.
The conditions of data set [9]: administered orally; cited from earlier work.

SMILES strings stand for the structures. Like-named read-outs stand apart in the source and are kept apart here.

For the compound `CC(=O)c1ccc(C2C[C@@]3(C)[C@@H](CC[C@@]3(O)C(F)(F)C(F)(F)F)[C@@H]3CCC4=CC(=O)CCC4=C23)cc1` (stereo partly drawn) [11β-(4-acetylphenyl)-17β-hydroxy-17α-(1,1,2,2,2-pentafluoroethyl)-estra-4,9-dien-3-one], in data set [1], the palpable tumors entry is given as “no palpable tumors were detected”. In addition, the “increased stability of progesterone receptor after BRCA1 knock down” value on progesterone receptor [2] and on progesterone receptor [4] was “could be antagonized” throughout. For the same compound, the “inhibition of the growth of BRCA1 knock down cells” value in data set [3] (Example 1) is “potent inhibition”. Further, the “antagonism of the effects of BRCA1 knock down (increased proliferation in the presence of progesterone)” value in [3] (co-treatment, siRNA knock down cells stimulated with progesterone and/or estrogens) was “able to antagonize the effects of BRCA1 knock down”; in data set [6] it was “able to antagonize the effects of BRCA1 knock down”. Moreover, on progesterone receptor [5], the antiprogestagenic activity entry is “high antiprogestagenic activity”. Further, the other endocrinological effects entry at progesterone receptor [5] is listed as “little or no other endocrinological effects”. Further, the “apoptosis of tumor cells” value in the data set with tumor cells is given as “increased apoptosis of tumor cells”. For the same compound, at progesterone receptor [7], the “endocrine side effects (androgen, estrogen or antiglucocorticoid activity)” value is reported as “only very weak or no endocrine side effects”.
For `CN(CCCCCCCC(F)(F)C(F)(F)F)CCCCCC1Cc2cc(O)ccc2C2C(F)CC3(C)C(CCC3(C)O)C12` (stereo not drawn) [11β-Fluoro-17α-methyl-7α-{5-[methyl(8,8,9,9,9-pentafluorononyl)-amino]pentyl}-estra-1,3,5(10)-triene-3,17β-diol], the bioavailability entry in “Bioavailability” was “particularly high bioavailability”.
Turning to `CC#C[C@]1(O)CC[C@H]2[C@@H]3CCC4=CC(=O)CCC4=C3[C@@H](c3ccc(N(C)C)cc3)C[C@@]21C` [mifepristone], the “development of mammary tumors” value in data set [8] is “blocks the development of mammary tumors”. Besides, the bioavailability entry in data set [9] is “poor bioavailability”.
